Assay: Human HepG2 cell viability assay in 384 well format
Type: toxicity, cell-based
Set-up: dose 125 nL, time 70.5 hour; concentration not given beside the values
Settings: HepG2 cells, read-out: Inhibition

Row | Compound | cytotoxicity at 70.5 h [%]
1 | NC(=O)C1(c2cnccn2)CCCN1Cc1ccc(Cl)c(F)c1 (configuration not stated) | -5.01
2 | COCCC(=O)N1CCC(c2cncc(Oc3cccnc3)n2)CC1 | -0.961
3 | CC(C)(N)C(=O)N1CCCC1c1cncc(Oc2ccccc2)n1 (configuration not stated) | 2.03
4 | Cn1ccnc1CN1CCOC(C)(C(=O)N2CCOCC2)C1 (configuration not stated) | 1.29
5 | Cc1cccc(CN2CCOC(C)(C(=O)N3CCOCC3)C2)n1 (configuration not stated) | 11
6 | CC(=O)Nc1nc(C2CCN(C(=O)c3ccncc3)CC2)cs1 | 24.9
7 | CC1(C(=O)N2CCOCC2)CN(Cc2c[nH]cn2)CCO1 (configuration not stated) | -0.532
8 | Cc1cc(CN2CCN(S(C)(=O)=O)CC(C(=O)N(C)C)C2)no1 (configuration not stated) | 0.351
9 | CC(=O)N1CCN(c2ccnc(C)n2)CC(COc2ccccc2)C1 (configuration not stated) | -3.78
10 | NC(=O)C1CN(C(=O)Cc2cccnc2)CCN(C2CCOCC2)C1 (configuration not stated) | 0.12
11 | Oc1nc(N2CCOCC2)nc2c1CCN(Cc1ccccc1)CC2 | -1.05
12 | CC(=O)Nc1nc(C2CCN(C(C)C)CC2)cs1 | -1.18
13 | CC(C)C(=O)N1CCCC(c2cncc(Oc3cccnc3)n2)C1 (configuration not stated) | -2.17
14 | O=C(Cc1ccsc1)N1CCOC(c2nc(-c3ncccn3)no2)C1 (configuration not stated) | -2.86
15 | Cc1n[nH]c(C)c1-c1nccnc1CC1CCN(C(C)C)CC1 | 13.4
16 | Cc1cc(CCC(=O)N2CCCC2)nc(C2CCCN2)n1 (configuration not stated) | -1.61
17 | CNC(=O)C1(c2cnccn2)CCCN1C(=O)c1ccc(OC)cc1 (configuration not stated) | 18.7
18 | CNC(=O)C1(c2cnccn2)CCCN1C(=O)c1ccc(F)cc1 (configuration not stated) | 22.8
19 | COc1ccc(Oc2nccnc2C2CCN(C(C)=O)CC2)cc1 | -4.84
20 | CN1CCCCC[C@@H]2[C@@H]1[C@H](c1ccccc1)CN2C(=O)c1cccnc1 | 3.63
21 | CN1CC(c2cc(O)nc(NCc3ccc(Cl)cc3)n2)CC1=O (configuration not stated) | -5.19
22 | CC(=O)N1CCC(c2nccnc2-c2ccc(F)cc2)CC1 | -0.029
23 | COCCC(=O)N1CCC(c2cc(O)n(C)n2)C1 (configuration not stated) | 1.63
24 | CC(=O)N1CCC(c2nccnc2-c2ccc(F)c(F)c2)CC1 | -0.906

Row | Compound | cytotoxicity at 70.5 h [%]
25 | Nc1nc2nc(C3CCCN(C(=O)c4cnccn4)C3)ccc2s1 (configuration not stated) | -3.81
26 | CNC(=O)c1ccc(C2CN(C(=O)c3scnc3C)CCO2)nc1 (configuration not stated) | -3.13
27 | Cc1cccnc1C(=O)N1CCC(Cc2cnc3[nH]ccc3c2)CC1 | 21.2
28 | CNC(=O)C1(c2cnccn2)CCCN1C(=O)c1ncccc1C (configuration not stated) | -5.43
29 | O=S(=O)(N1CCCCC1)N1CCC(Oc2cnccn2)CC1 | -2.24
30 | O=C(N[C@@H]1CC[C@@H](n2ccnc2)[C@@H]1O)c1cc2c(s1)CCC2 | 1.51
31 | COc1ccc(CN(C)[C@@H]2CN(C(=O)c3ccnn3C)C[C@H]2O)cc1 | -3.38
32 | CS(=O)(=O)N1CCN(Cc2cccs2)CC(C(N)=O)C1 (configuration not stated) | -2.16
33 | COc1ccc(CN(C)[C@@H]2CN(C(=O)c3cncs3)C[C@H]2O)cc1 | 0.0164
34 | COCCN(C(=O)c1ccccn1)c1nc2c(s1)CCc1c-2cnn1C | 14.7
35 | CN(C)S(=O)(=O)N1CCN(Cc2ccnc(N3CCCC3)n2)CC1 | -1.31
36 | Cn1nc(C2CN(C(=O)c3cccnc3)C2)c2nccnc21 | -3.75
37 | Cn1ccc(C(=O)N2CCCC(c3cc(O)n(C)n3)C2)n1 (configuration not stated) | 28
38 | COCCN1CCC(c2cncc(-c3ccccc3C)n2)CC1 | -4.28
39 | Cc1ccccc1-c1cncc(C2CCN(Cc3cnn(C)c3)CC2)n1 | -9.46
40 | Cc1cc(C2CCCN(C(=O)c3cccnc3)C2)ccn1 (configuration not stated) | -11.1
41 | CN1CCCC[C@@H]2[C@H]1[C@@H](c1ccccc1)CCN2C(=O)c1cccnc1 | -7.01
42 | CN(C)CC(=O)N1CC(c2nn(C)c3nccnc23)C1 | -6.77
43 | Cc1cc(C)nc(Nc2cccc(C3CCCN(CC4CC4)C3)n2)n1 (configuration not stated) | -5.69
44 | CCc1c(C)nc(C2CCCN2C(=O)c2cc(C)no2)nc1O (configuration not stated) | 10.5
45 | CCc1c(C)nc2cc(C3CCN(CCc4ccccc4)C3)nn2c1O (configuration not stated) | -0.223
46 | NC(=O)C1CCCN(S(=O)(=O)c2cnn(-c3ccccc3)c2)C1 (configuration not stated) | -1.76
47 | CC(C)CCN(C)Cn1ncc2cn(-c3ccccc3)nc2c1=O | 14.5
48 | CCCn1cc(C(=O)NCCS(N)(=O)=O)c2ccccc21 | 15.9

Row | Compound | cytotoxicity at 70.5 h [%]
49 | COc1ccc(Cl)cc1NCC(=O)N(Cc1cccnc1)C1CC1 | -7.28
50 | CC(c1nc(C2CC2)no1)N1CCN(CCn2ccccc2=O)CC1 (configuration not stated) | -4.93
51 | CCS(=O)(=O)NCCN1CCc2ccc(F)cc2C1C (configuration not stated) | -4.91
52 | Cc1nn(C)c(C)c1C1CCCN1c1ncnc2c1CCC2 (configuration not stated) | 1.18
53 | CN(CC(=O)NCCc1cc2ccccc2o1)S(C)(=O)=O | 13.9
54 | COCCn1c(C(=O)NCc2n[nH]c(C)n2)cc2ccccc21 | -0.294
55 | OC1(CNc2ccc(Br)cn2)CCC1 | 16.3
56 | CS(=O)(=O)CCn1ccc(NCc2ccc(C#N)cc2)n1 | -0.713
57 | CN(C)c1ccc(C(=O)N2CCCCC2CC(N)=O)c(F)c1 (configuration not stated) | -1.41
58 | OC1(CNc2ccc(Br)cn2)CCSCC1 | 15.9
59 | Cc1nc(CN(C)C(=O)Nc2cccc(COC(C)C)c2C)no1 | -4.14
60 | Cc1csc(C(C)(C)NCCNS(C)(=O)=O)n1 | 18.5
61 | Cc1csc(C(C)(C)NCCCS(C)(=O)=O)n1 | -2
62 | CC1c2cc(F)ccc2CCN1CCS(=O)(=O)C(C)C (configuration not stated) | -3.51
63 | CNS(=O)(=O)CC1CCCN1c1ccccn1 (configuration not stated) | -4.24
64 | CC(Nc1ccn(CCS(C)(=O)=O)n1)c1ccc(C#N)cc1 (configuration not stated) | -1.96
65 | CN(C)C(=O)CCCn1ccc(NCc2ccc(C#N)cc2)n1 | -2.31
66 | CC1c2cc(F)ccc2CCN1CCCS(=O)(=O)C(C)C (configuration not stated) | -2.78
67 | CNC(=O)NCC(=O)N(C)C(c1ccc(Cl)cc1)c1cccnc1 (configuration not stated) | 21.3
68 | O=C1NCCCCC1Sc1ccccc1F (configuration not stated) | -11.2
69 | CN(C)c1ncccc1CNCc1cccc(O)c1 | -12.2
70 | Cc1ccc(CNC(=O)CN(CCC(N)=O)c2ccc(F)cc2)cc1 | -3.51
71 | COc1ccc(CCC2CCCCN2)cc1OC (configuration not stated) | 19.8
72 | N#CCCCS(=O)(=O)NC1(c2cccc(Br)c2)CC1 | -8.99

Row | Compound | cytotoxicity at 70.5 h [%]
73 | CCN(CC)C(=O)NC(C)c1ccc(Oc2cccnc2)c(F)c1 (configuration not stated) | 16
74 | Cc1ccc(C(F)(F)F)cc1NC(=O)C1CCCN1 (configuration not stated) | -8.7
75 | O=C(NCC1(O)CCC1)c1c(O)cc(Cl)cc1Cl | -1.39
76 | O=C(NCC1(O)CCC1)c1c(O)cc(F)cc1F | 13.9
77 | CSCC(=O)N1CCOC(c2nc(C(C)C)n[nH]2)C1 (configuration not stated) | -7.67
78 | CC1(C)CN(C(=O)c2cc(F)cc3[nH]cnc23)CCS1 | -11
79 | Cc1noc(NCc2cn(C)nc2-c2ccncc2)n1 | -11.4
80 | CCN1CCCCC1C(=O)N1CCN(C(=O)OC)CC1 (configuration not stated) | -5.22
81 | CCN1CCCCC1C(=O)N1CCC(OCCOC)CC1 (configuration not stated) | 1.39
82 | CC(=O)Nc1cccc(CN2CCN(C3=NCC(C)(C)S3)CC2)c1 | -10.7
83 | COC(=O)N1CCCC(C(=O)NCCc2c[nH]c3cc(C)ccc23)C1 (configuration not stated) | -10.8
84 | Cc1ccc(CN(C)C(=O)CN2CCc3ccccc3C2)o1 | -6.98
85 | OCc1cccc(CNCc2cccc3c2OCCO3)c1 | -1.29
86 | Cc1cc(C(=O)N(CC(=O)O)CC(C)C)ccc1F | -7.96
87 | O=C1CCC(=O)N1CCn1nnc(-c2ccc(Br)cc2)n1 | -2.01
88 | COc1ccc(C)cc1CN(CC(N)=O)C(C)C | -3.29
89 | CCN(Cc1ccccn1)C1CCN(c2ccccc2)C1=O (configuration not stated) | -5.06
90 | Cc1nn(C)c(C)c1C1CCCN1C(=O)c1ccc(C(N)=O)s1 (configuration not stated) | 17.5
91 | Cc1nccc(CNC(=O)NC(c2ncc(C)s2)C2CC2)n1 (configuration not stated) | 17.4
92 | O=C(NCCOc1cccc(Cl)c1Cl)N1CCC2(CC1)OCCO2 | -4.01
93 | Cc1nc(C(C)C)sc1C(C)N(C)C(=O)c1ccc(=O)n(C)n1 (configuration not stated) | -1.77
94 | CCCOc1cc(CNC(=O)Nc2cccc(C(C)=O)c2)ccn1 | -0.91
95 | CCNC(=O)c1ccc(NC2CCOC3(CCCCC3)C2)nn1 (configuration not stated) | 16.8
96 | CCCOc1cc(CNC(=O)Nc2ccc(C)cc2)ccn1 | -2.77

Row | Compound | cytotoxicity at 70.5 h [%]
97 | CNS(=O)(=O)CC(=O)NCc1cc2c(s1)CCC(C)(C)C2 | -1.59
98 | CNS(=O)(=O)CC(=O)NCc1cc2c(s1)CCCCC2 | -1.17
99 | NC(=O)COc1cccc(Cn2cc(Br)cn2)c1 | -1.2
100 | NC(=O)CN1CCc2c(Br)ccc(F)c2C1 | 3.38
101 | CNC(=O)NC(=O)CN1CCc2c(Br)ccc(F)c2C1 | -0.281
102 | O=C(NCCN1CCOCC1)c1cc(-c2ccccc2Cl)[nH]n1 | 1.45
103 | Cc1ccc(-c2cc(C(=O)NCCN3CCOCC3)n[nH]2)s1 | -3.46
104 | NC(=O)c1cnc(NC2CCN(C(=O)C3CC3)CC2)c(Cl)c1 | -0.537
105 | Cc1cccc(C(=O)NCC2CCS(=O)(=O)C2)n1 (configuration not stated) | -1.5
106 | CCc1ncncc1C(=O)NCCNS(=O)(=O)c1ccc(C)cc1 | -1.77
107 | O=C(NCCN1CCOCC1)NCc1ccccc1-n1cccn1 | -0.678
108 | CC(C)(C)n1ncc2c(=O)[nH]c(N3CCN(CC(F)F)CC3)nc21 | -4.17
109 | Cc1cnc2c(S(=O)(=O)NC(=O)C(C)OCC3CC3)cccc2c1 (configuration not stated) | -0.0884
110 | Cc1nnc(NCC(c2ccco2)N2CCCCC2)c(C#N)c1C (configuration not stated) | -0.616
111 | Cc1csc(-c2cccc(NC(=O)NCC(C)(C)C(N)=O)c2)n1 | -0.0997
112 | Cc1ccc(NS(=O)(=O)c2ccc(C#N)cc2)c(CN(C)C)c1 | -3.45
113 | Cn1nc(C2CCN(C(=O)CN3CCCCC3)CC2)c2cccnc21 | -4.57
114 | Cc1n[nH]cc1CNCC1(c2ccc3c(c2)OCO3)CCOCC1 | -5.66
115 | Cc1n[nH]cc1CNCC1(c2cccc(F)c2)CCOCC1 | -5.63
116 | O[C@@]1(c2ccccn2)CC[C@H]2CN(Cc3ccccn3)C[C@H]21 | -0.173
117 | c1cc2nccc(CC3CCCN(C4CCOCC4)CC3)c2cn1 (configuration not stated) | -1.46

— ChEMBL document CHEMBL3507680, “University of Dundee, Gates Library screen for HepG2 cell viability”
